The target in this series is efflux pump P-gp (Homo sapiens, UniProt P08183). Conditions: Figure 11; for Effect on the rate of excretion of rhodamine 123 (R123) out of Caco-2 cells / interaction with P-gp: Caco-2 cells loaded with 10 μM R123, compared to control DMSO.

Each structure is given as a SMILES string.

efflux pump P-gp, sequence (P08183 whole entry): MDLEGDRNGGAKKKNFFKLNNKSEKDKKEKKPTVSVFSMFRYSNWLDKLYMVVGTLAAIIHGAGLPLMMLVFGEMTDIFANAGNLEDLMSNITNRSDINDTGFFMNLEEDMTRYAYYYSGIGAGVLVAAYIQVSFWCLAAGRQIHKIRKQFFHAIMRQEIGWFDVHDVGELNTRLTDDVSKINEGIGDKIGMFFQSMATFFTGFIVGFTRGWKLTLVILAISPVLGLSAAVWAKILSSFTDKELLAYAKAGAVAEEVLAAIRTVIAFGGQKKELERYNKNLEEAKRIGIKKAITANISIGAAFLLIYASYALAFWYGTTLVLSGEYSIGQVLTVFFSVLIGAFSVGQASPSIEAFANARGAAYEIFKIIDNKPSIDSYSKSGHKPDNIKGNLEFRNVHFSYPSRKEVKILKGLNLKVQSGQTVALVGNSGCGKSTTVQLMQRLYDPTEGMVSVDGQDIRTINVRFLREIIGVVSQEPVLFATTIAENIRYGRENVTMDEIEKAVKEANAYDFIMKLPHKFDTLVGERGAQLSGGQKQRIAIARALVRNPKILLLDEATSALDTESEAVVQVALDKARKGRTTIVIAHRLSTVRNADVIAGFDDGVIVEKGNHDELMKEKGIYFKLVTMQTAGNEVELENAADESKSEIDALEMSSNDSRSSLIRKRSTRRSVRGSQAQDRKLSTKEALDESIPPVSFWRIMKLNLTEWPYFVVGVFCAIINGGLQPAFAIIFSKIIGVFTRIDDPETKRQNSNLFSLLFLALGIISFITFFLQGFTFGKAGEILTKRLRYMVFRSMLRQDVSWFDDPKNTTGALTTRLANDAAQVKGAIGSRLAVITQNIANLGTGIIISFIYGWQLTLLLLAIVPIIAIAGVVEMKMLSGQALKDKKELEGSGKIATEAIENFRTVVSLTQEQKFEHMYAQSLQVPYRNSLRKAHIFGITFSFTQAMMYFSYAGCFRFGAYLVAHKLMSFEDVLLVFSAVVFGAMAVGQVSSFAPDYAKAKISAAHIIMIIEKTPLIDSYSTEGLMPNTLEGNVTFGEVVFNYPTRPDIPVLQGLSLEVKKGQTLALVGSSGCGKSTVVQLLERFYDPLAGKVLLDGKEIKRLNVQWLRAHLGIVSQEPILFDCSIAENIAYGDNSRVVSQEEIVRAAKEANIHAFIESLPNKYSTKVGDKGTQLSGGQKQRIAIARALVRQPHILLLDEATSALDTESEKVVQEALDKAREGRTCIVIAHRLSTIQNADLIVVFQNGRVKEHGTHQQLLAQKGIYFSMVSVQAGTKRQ
Procedure: Results are expressed as percentage compared to the rate of excretion of R123 in the absence of drug (i.e control DMSO). Error bars: SD; verapamil: positive control; diazepam: negative control.
Shortly, Caco-2 cells were washed with HEPES-buffered Ringer’s (RH) solution (NaCl 150 mM, KCl 5.2 mM, CaCl2 2.2 mM, MgCl2 0.2 mM, NaHCO3 6 mM, Glucose 2.8 mM, HEPES 5 mM, water for injection), pH = 7.4 and incubated for 120 min with 10 μM R123. After incubation, cells were washed with RH and incubated with test compounds for one hour during which the rate out (Kout) of R123 (λex = 485 nm and λem = 538 nm) was monitored every 2 minutes with a microplate fluorescence reader (Fluoroskan Ascent FL, Thermo Labsystems, Issy-Les-Moulineaux, France) at 37 °C, after which the cell viability was assessed using MTT cytotoxicity assay kit. Rhodamine Kout was calculated as the slope of the curve of the cumulative R123 fluorescence against the time. Verapamil was used as a positive control and diazepam as negative control.

In the case of `NCCC(O)(P(=O)(O)O)P(=O)(O)O` [APD, pamidronate], the “Effect on the rate of excretion of rhodamine 123 (R123) out of Caco-2 cells / interaction with P-gp” value (from here on “Effect … of Caco-2 cells / interaction with P-gp”) was “did not show any interaction”.
As for `CS(=O)(=O)OCCCCOS(C)(=O)=O` [BU, busulfan], the “Effect … of Caco-2 cells / interaction with P-gp” value is on record as “not transported by P-gp”.
With `C[n+]1ccc(-c2cc[n+](C)cc2)cc1` [PQ, paraquat], the “Interference with the P-gp mediated efflux of R123 out of Caco-2 cells” value (compound at 50 µM, Caco-2 cells) is “do not interfere”.
For `CCCC(CCC)C(=O)O` [VPA, valproic acid], the “Effect … of Caco-2 cells / interaction with P-gp” value is reported as “not transported by P-gp”.
